The RepoRT retention time repository (doi:10.1016/j.chroma.2019.01.023)

Key:
Details in all cases: stereoisomer not certain
[1] = RP, Phenomenex Kinetex C18, 150 × 2.1 mm, 1.7 µm, 30 °C, 0.3 mL/min, estimated dead time 1.1 min; A: water + 0.1% formic acid, pH 3; B: acetonitrile + 0.1% formic acid, pH 3; gradient (min/%B) 0/2 14/100 17/100 17.1/2 25/2
[2] = HILIC, Waters ACQUITY UPLC BEH Amide, 150 × 2.1 mm, 1.7 µm, 40 °C, 0.5 mL/min, estimated dead time 0.66 min; A: 5% water + 95% acetonitrile; B: 70% water + 30% acetonitrile + 10 mM ammonium formate, pH 6.5; gradient (min/%B) 0/0 2/0 20/70 23/70 24/0 31/0
[3] = HILIC, Merck SeQuant ZIC-pHILIC, 150 × 2.1 mm, 5 µm, 40 °C, 0.3 mL/min, estimated dead time 1.1 min; A: acetonitrile; B: water + 2.8 mM ammonium formate, pH 9; gradient (min/%B) 0/5 1/5 10/51 13/51 13.1/5 20/5

LC retention time [1]	LC retention time [2]	LC retention time [3]	Compound
1.95 min	4.81 min	6.67 min	O=c1cccc(O)[nH]1 [2,6-DIHYDROXYPYRIDINE]
1.52 min	0.87 min	7.38 min	Nc1ccccc1O [2-AMINOPHENOL]
3.82 min	1.29 min	4.59 min	CSCCC(O)C(=O)O (configuration not stated) [2-HYDROXY-4-(METHYLTHIO)BUTANOATE]
4.46 min	0.9 min		O=C(O)Cc1ccccc1O [2-HYDROXYPHENYLACETATE]
3.85 min	5.2 min	7.37 min	CC(CCC(=O)O)C(=O)O (configuration not stated) [2-METHYLGLUTARATE]
6.02 min	1.02 min	2.12 min	O=C([O-])CCc1ccccc1O [3-(2-HYDROXYPHENYL)PROPANOATE]
1.52 min	1.84 min	7.39 min	Nc1cc(C(=O)O)ccc1[O-] [3-AMINO-4-HYDROXYBENZOATE]
3.68 min	1.39 min	6.24 min	Nc1c([O-])cccc1C(=O)O [3-HYDROXYANTHRANILATE]
4.14 min	1.83 min		CCC(C)C(=O)C(=O)[O-] (configuration not stated) [3-METHYL-2-OXOVALERATE]
1.39 min	10.1 min		NC(N)=NCCCC(=O)O [4-GUANIDINOBUTANOATE]
5.11 min	2.67 min	1.43 min	O=Cc1ccc(O)cc1 [4-HYDROXYBENZALDEHYDE]
1.73 min	6.69 min	6.94 min	Nc1ncnc2c1ncn2C1OC(CO)C2OP(=O)(O)OC21 (configuration not stated) [ADENOSINE 2',3'-CYCLIC PHOSPHATE]
2.34 min	3.85 min	5.92 min	Nc1ncnc2c1ncn2C1OC(CO)C(O)C1O (configuration not stated) [ADENOSINE]
3.73 min	5.26 min	8.71 min	O=C([O-])CCCCC(=O)[O-] [ADIPATE]
9.08 min	1.13 min		C=CC1=C(C)C(C=c2[nH]c(=Cc3[nH]c(C=C4NC(=O)C(C)=C4C=C)c(C)c3CCC(=O)O)c(CCC(=O)O)c2C)=NC1=O [BILIVERDIN]
1.39 min	6.3 min	7.29 min	Nc1ccn(C2OC(CO)C(O)C2O)c(=O)n1 (configuration not stated) [CYTIDINE]
1.67 min		8.92 min	Nc1nc2c(ncn2C2CC(O)C(COP(=O)(O)O)O2)c(=O)[nH]1 (configuration not stated) [DEOXYGUANOSINE-MONOPHOSPHATE]
1.41 min		8.2 min	O=c1ccn(C2CC(O)C(COP(=O)(O)O)O2)c(=O)[nH]1 (configuration not stated) [DEOXYURIDINE-MONOPHOSPHATE]
1.62 min	8.68 min		NCCc1ccc(O)c(O)c1 [DOPAMINE]
1.52 min		8.93 min	Cc1cn(C2CC(O)C(COP(=O)(O)OP(=O)(O)OC3OC(CO)C(O)C(O)C3O)O2)c(=O)[nH]c1=O [DTDP-D-GLUCOSE]
1.88 min		9.5 min	O=C(O)C=CC(=O)O [FUMARATE]
2.92 min	2 min		O=C(O)CCCC(=O)O [GLUTARATE]
2.56 min	11.9 min		C[N+](C)(C)CC(CC(=O)[O-])OC(=O)CCCC(=O)O (configuration not stated) [GLUTARYLCARNITINE]
1.46 min		8.59 min	NC(CCC(=O)NC(CS)C(=O)NCC(=O)O)C(=O)O (configuration not stated) [GLUTATHIONE REDUCED]

LC retention time [1]	LC retention time [2]	LC retention time [3]	Compound
1.41 min		9.41 min	Nc1nc2c(ncn2C2OC(COP(=O)(O)O)C(O)C2O)c(=O)[nH]1 (configuration not stated) [GUANOSINE MONOPHOSPHATE]
3.31 min	1.27 min	6.88 min	O=C(O)Cc1cc(O)ccc1O [HOMOGENTISATE]
4.81 min	1.59 min	4.78 min	COc1cc(CC(=O)O)ccc1O [HOMOVANILLATE]
4.46 min		6.29 min	Oc1ccc(O)cc1 [HYDROQUINONE]
3.97 min	1.4 min	6.83 min	O=C(O)C(O)Cc1ccc(O)cc1 (configuration not stated) [HYDROXYPHENYLLACTATE]
1.9 min		7.18 min	CCC(C)C(N)C(=O)O (configuration not stated) [ISOLEUCINE]
2.05 min	7.96 min	7.02 min	CC(C)CC(N)C(=O)O (configuration not stated) [LEUCINE]
12.8 min	0.84 min		CC(CCC(=O)O)C1CCC2C3CCC4CC(O)CCC4(C)C3CCC12C (configuration not stated) [LITHOCHOLATE]
1.53 min		2.45 min	O=C([O-])C=CC(=O)[O-] [MALEATE]
4.45 min		4.83 min	O=C([O-])C(O)c1ccccc1 (configuration not stated) [MANDELATE]
1.43 min	8.53 min	7.53 min	CSCCC(N)C(=O)O (configuration not stated) [METHIONINE]
3.85 min	1.27 min	7.27 min	CC(CC(=O)O)CC(=O)O [METHYGLUTARATE]
2.04 min	0.89 min		CC1(O)CCOC(=O)C1 (configuration not stated) [MEVALOLACTONE]
1.97 min	4.75 min		CC(=O)NC(C)C(=O)O (configuration not stated) [N-ACETYLALANINE]
2.62 min	1.88 min		CC(=O)NC(CS)C(=O)O (configuration not stated) [N-ACETYLCYSTEINE]
1.58 min		8.32 min	CCC(NC(=O)CCC([NH3+])C(=O)[O-])C(=O)NCC(=O)[O-] (configuration not stated) [OPHTHALMATE]
4.59 min		5.76 min	O=C(O)Cc1ccc(O)cc1 [P-HYDROXYPHENYLACETATE]
4.94 min		5.27 min	O=C(O)C(=O)Cc1ccccc1 [PHENYLPYRUVATE]
3.77 min		8.04 min	Oc1ccccc1O [PYROCATECHOL]
6.25 min		7.55 min	O=C(C=Cc1ccc(O)c(O)c1)OC(Cc1ccc(O)c(O)c1)C(=O)O (configuration not stated) [ROSMARINATE]
1.97 min		8.51 min	Nc1ncnc2c1ncn2C1OC(CSCCC([NH3+])C(=O)[O-])C(O)C1O (configuration not stated) [S-ADENOSYLHOMOCYSTEINE]
4.51 min		1.73 min	CC=CC=CC(=O)[O-] [SORBATE]
1.95 min	3.9 min		O=C(O)CCC(=O)O [SUCCINATE]
1.45 min		10.2 min	O=c1[nH]c(=O)c2ncn(C3OC(COP(=O)(O)O)C(O)C3O)c2[nH]1 (configuration not stated) [XANTHOSINE-MONOPHOSPHATE]

Compound	LC retention time [1]	LC retention time [2]	LC retention time [3]
O=C(O)CCCCCCCCCO [10-HYDROXYDECANOATE]	7.13 min	1 min	1.44 min
CCCCCCCCCC(=O)OCC(COP(=O)([O-])OCC[N+](C)(C)C)OC(=O)CCCCCCCCC (configuration not stated) [DIDECANOYL-GLYCEROPHOSPHOCHOLINE]	12.8 min	5.15 min	1.65 min
O=C(O)CCCCCCCCCCCO [OMEGA-HYDROXYDODECANOATE]	8.62 min	0.84 min	
